The results in this text go back to patent publication US10745382B2 (BRISTOL-MYERS SQUIBB COMPANY, priority 2015, dated 2020).

T1 sequence (Q9NZQ7 with tags, fused parts or gaps): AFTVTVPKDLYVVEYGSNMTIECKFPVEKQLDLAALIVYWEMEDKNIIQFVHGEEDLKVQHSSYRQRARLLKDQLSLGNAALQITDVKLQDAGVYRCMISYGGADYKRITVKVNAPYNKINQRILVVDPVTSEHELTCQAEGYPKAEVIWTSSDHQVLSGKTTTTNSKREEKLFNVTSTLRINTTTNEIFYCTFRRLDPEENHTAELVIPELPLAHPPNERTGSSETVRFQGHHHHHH

The experiment concerns the target T1, PD-1/PD-L1 (Homo sapiens, UniProt Q9NZQ7).
T1 construct: made in house; host or cells: HEK293T
Nature of the experiment: PD-1/PD-L1 Homogenous Time-Resolved Fluorescence (HTRF) binding assay. As to conditions: PD-L1-His 10 nM, PD-1-Ig 20 nM; value given as range class; read-out: Range or IC50. A digest of the protocol: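 Additional pairs run were PD-1-Ig with PD-L2-His (20 & 5 nM) and CD80-His with PD-L1-Ig (100 & 10 nM), all human proteins. Buffer: dPBS plus 0.1% BSA, 0.05% Tween-20; time-resolved FRET read-out via 1 nM Eu-cryptate anti-Ig and 20 nM APC anti-His, final concentrations.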
Regarding `Cc1cc(OCc2cccc(-c3cccc(OCCCN4CC[C@@H](O)C4)c3C)c2C)cc(OCc2cncc(C#N)c2)c1CNC(CO)(CO)CO` [Example 4089, (R)-5-((2-(((1,3-dihydroxy-2-(hydroxymethyl)propan-2-yl)amino)methyl)-5-((3′-(3-(3-hydroxypyrrolidin-1-yl)propoxy)-2,2′-dimethyl-[1,1′-biphenyl]-3-yl)methoxy)-3-methylphenoxy)methyl)nicotinonitrile], the IC50 (in general, the concentration at which inhibition is half-maximal) lay in the range of 0.21 to 10 nM.
In the case of `Cc1cc(OCc2cccc(-c3cccc(OCCCN4CC[C@@H](O)C4)c3C)c2C)cc(OCc2cncc(C#N)c2)c1CN(CCO)CCO` [Example 4090, (R)-5-((2-((bis(2-hydroxyethyl)amino)methyl)-5-((3′-(3-(3-hydroxypyrrolidin-1-yl)propoxy)-2,2′-dimethyl-[1,1′-biphenyl]-3-yl)methoxy)-3-methylphenoxy)methyl)nicotinonitrile] it was 0.21 to 10 nM; in that of `Cc1cc(OCc2cccc(-c3cccc(OCCCN4CC[C@@H](O)C4)c3C)c2C)cc(OCc2cncc(C#N)c2)c1CN[C@@](C)(CO)C(=O)O` [Example 4091, (S)-2-((2-((5-cyanopyridin-3-yl)methoxy)-4-((3′-(3-((R)-3-hydroxypyrrolidin-1-yl)propoxy)-2,2′-dimethyl-[1,1′-biphenyl]-3-yl)methoxy)-6-methylbenzyl)amino)-3-hydroxy-2-methylpropanoic Acid], 0.21 to 10 nM.
Under `Cc1c(COc2cc(OCc3cncc(C#N)c3)c(CN(C)[C@@](C)(CO)C(=O)O)c(C)c2Cl)cccc1-c1cccc(OCCCN2CC[C@@H](O)C2)c1C` [Example 4100, (S)-2-((3-chloro-6-((5-cyanopyridin-3-yl)methoxy)-4-((3′-(3-((R)-3-hydroxypyrrolidin-1-yl)propoxy)-2,2′-dimethyl-[1,1′-biphenyl]-3-yl)methoxy)-2-methylbenzyl)(methyl)amino)-3-hydroxy-2-methylpropanoic Acid] stands 0.21 to 10 nM; under `Cc1c(COc2cc(OCc3cncc(C#N)c3)c(CN3CCCC[C@H]3C(=O)O)c(C)c2Cl)cccc1-c1cccc(OCCCN2CC[C@@H](O)C2)c1C` [Example 4101, (S)-1-(3-chloro-6-((5-cyanopyridin-3-yl)methoxy)-4-((3′-(3-((R)-3-hydroxypyrrolidin-1-yl)propoxy)-2,2′-dimethyl-[1,1′-biphenyl]-3-yl)methoxy)-2-methylbenzyl)piperidine-2-carboxylic Acid], 0.21 to 10 nM.
In the case of `Cc1c(COc2cc(OCc3cncc(C#N)c3)c(CNC(CO)CO)c(C)c2Cl)cccc1-c1cccc(OCCCN2CC[C@@H](O)C2)c1C` [Example 4102, (R)-5-((4-chloro-2-(((1,3-dihydroxypropan-2-yl)amino)methyl)-5-((3′-(3-(3-hydroxypyrrolidin-1-yl)propoxy)-2,2′-dimethyl-[1,1′-biphenyl]-3-yl)methoxy)-3-methylphenoxy)methyl)nicotinonitrile] it was 0.21 to 10 nM; in that of `Cc1c(COc2cc(OCc3cncc(C#N)c3)c(CNC(C)(CO)CO)c(C)c2Cl)cccc1-c1cccc(OCCCN2CC[C@@H](O)C2)c1C` [Example 4103, (R)-5-((4-chloro-2-(((1,3-dihydroxy-2-methylpropan-2-yl)amino)methyl)-5-((3′-(3-(3-hydroxypyrrolidin-1-yl)propoxy)-2,2′-dimethyl-[1,1′-biphenyl]-3-yl)methoxy)-3-methylphenoxy)methyl)nicotinonitrile], 0.21 to 10 nM; in that of `Cc1c(COc2cc(OCc3cncc(C#N)c3)c(CNC(CO)(CO)CO)c(C)c2Cl)cccc1-c1cccc(OCCCN2CC[C@@H](O)C2)c1C` [Example 4104, (R)-5-((4-chloro-2-(((1,3-dihydroxy-2-(hydroxymethyl)propan-2-yl)amino)methyl)-5-((3′-(3-(3-hydroxypyrrolidin-1-yl)propoxy)-2,2′-dimethyl-[1,1′-biphenyl]-3-yl)methoxy)-3-methylphenoxy)methyl)nicotinonitrile], 0.21 to 10 nM.
In the case of `Cc1c(COc2cc(OCc3cncc(C#N)c3)c(CN(CCO)CCO)c(C)c2Cl)cccc1-c1cccc(OCCCN2CC[C@@H](O)C2)c1C` [Example 4105, (R)-5-((2-((bis(2-hydroxyethyl)amino)methyl)-4-chloro-5-((3′-(3-(3-hydroxypyrrolidin-1-yl)propoxy)-2,2′-dimethyl-[1,1′-biphenyl]-3-yl)methoxy)-3-methylphenoxy)methyl)nicotinonitrile], the IC50 was in the range of 0.21 to 10 nM.
For the molecule `Cc1c(COc2cc(OCc3cncc(C#N)c3)c(CN[C@@](C)(CO)C(=O)O)c(C)c2Cl)cccc1-c1cccc(OCCCN2CC[C@@H](O)C2)c1C` [Example 4106, (S)-2-((3-chloro-6-((5-cyanopyridin-3-yl)methoxy)-4-((3′-(3-((R)-3-hydroxypyrrolidin-1-yl)propoxy)-2,2′-dimethyl-[1,1′-biphenyl]-3-yl)methoxy)-2-methylbenzyl)amino)-3-hydroxy-2-methylpropanoic Acid], the IC50 lay within 0.21 to 10 nM.
Under `Cc1c(COc2cc(OCc3cncc(C#N)c3)c(CN(C)C(C)(CO)CO)c(C)c2Cl)cccc1-c1cccc(OCCCN2CC[C@@H](O)C2)c1C` [Example 4107, (R)-5-((4-chloro-2-(((1,3-dihydroxy-2-methylpropan-2-yl)(methyl)amino)methyl)-5-((3′-(3-(3-hydroxypyrrolidin-1-yl)propoxy)-2,2′-dimethyl-[1,1′-biphenyl]-3-yl)methoxy)-3-methylphenoxy)methyl)nicotinonitrile] stands 0.21 to 10 nM.
In the case of `Cc1c(COc2cc(OCc3cncc(C#N)c3)c(CN(C)[C@@](C)(CO)C(=O)O)cc2Cl)cccc1-c1cccc(OCCCN2CC[C@@H](O)C2)c1C` [Example 4108, (S)-2-((5-chloro-2-((5-cyanopyridin-3-yl)methoxy)-4-((3′-(3-((R)-3-hydroxypyrrolidin-1-yl)propoxy)-2,2′-dimethyl-[1,1′-biphenyl]-3-yl)methoxy)benzyl)(methyl)amino)-3-hydroxy-2-methylpropanoic Acid] it was 0.21 to 10 nM.
In the case of `CCN(Cc1cc(Cl)c(OCc2cccc(-c3cccc(OCCCN4CC[C@@H](O)C4)c3C)c2C)cc1OCc1cncc(C#N)c1)[C@@](C)(CO)C(=O)O` [Example 4109, (S)-2-((5-chloro-2-((5-cyanopyridin-3-yl)methoxy)-4-((3′-(3-((R)-3-hydroxypyrrolidin-1-yl)propoxy)-2,2′-dimethyl-[1,1′-biphenyl]-3-yl)methoxy)benzyl)(ethyl)amino)-3-hydroxy-2-methylpropanoic Acid] it was 0.21 to 10 nM; in that of `Cc1c(COc2cc(OCc3cncc(C#N)c3)c(CNC3(C(=O)O)CC3)cc2Cl)cccc1-c1cccc(OCCCN2CC[C@@H](O)C2)c1C` [Example 4110, (R)-1-((5-chloro-2-((5-cyanopyridin-3-yl)methoxy)-4-((3′-(3-(3-hydroxypyrrolidin-1-yl)propoxy)-2,2′-dimethyl-[1,1′-biphenyl]-3-yl)methoxy)benzyl)amino)cyclopropane-1-carboxylic Acid], 0.21 to 10 nM; in that of `Cc1c(COc2cc(OCc3cncc(C#N)c3)c(CN(CCO)[C@@](C)(CO)C(=O)O)cc2Cl)cccc1-c1cccc(OCCCN2CC[C@@H](O)C2)c1C` [Example 4111, (S)-2-((5-chloro-2-((5-cyanopyridin-3-yl)methoxy)-4-((3′-(3-((R)-3-hydroxypyrrolidin-1-yl)propoxy)-2,2′-dimethyl-[1,1′-biphenyl]-3-yl)methoxy)benzyl)(2-hydroxyethyl)amino)-3-hydroxy-2-methylpropanoic Acid], 0.21 to 10 nM.
`Cc1c(COc2cc(OCc3cncc(C#N)c3)c(CN3CCCC[C@H]3C(=O)O)cc2Cl)cccc1-c1cccc(OCCCN2CCC(F)(F)C2)c1C` [Example 4112, (S)-1-(5-chloro-2-((5-cyanopyridin-3-yl)methoxy)-4-((3′-(3-(3,3-difluoropyrrolidin-1-yl)propoxy)-2,2′-dimethyl-[1,1′-biphenyl]-3-yl)methoxy)benzyl)piperidine-2-carboxylic Acid]: the IC50 fell in the range of 0.21 to 10 nM.
Consider `Cc1c(COc2cc(OCc3cncc(C#N)c3)c(CN(CCO)CCCO)cc2Cl)cccc1-c1cccc(OCCCN2CCC(F)(F)C2)c1C` [Example 4113], for which the IC50 lay in the range of 0.21 to 10 nM.
Under `Cc1c(COc2cc(OCc3cncc(C#N)c3)c(CN(C)C(C)(CO)CO)cc2Cl)cccc1-c1cccc(OCCCN2CCC(F)(F)C2)c1C` [Example 4114, 5-((4-chloro-5-((3′-(3-(3,3-difluoropyrrolidin-1-yl)propoxy)-2,2′-dimethyl-[1,1′-biphenyl]-3-yl)methoxy)-2-(((1,3-dihydroxy-2-methylpropan-2-yl)(methyl)amino)methyl)phenoxy)methyl)nicotinonitrile] stands 0.21 to 10 nM; under `Cc1c(COc2cc(OCc3cncc(C#N)c3)c(CN(C)[C@@](C)(CO)C(=O)O)cc2Cl)cccc1-c1cccc(OCCCN2CCC(F)(F)C2)c1C` [Example 4115, (S)-2-((5-chloro-2-((5-cyanopyridin-3-yl)methoxy)-4-((3′-(3-(3,3-difluoropyrrolidin-1-yl)propoxy)-2,2′-dimethyl-[1,1′-biphenyl]-3-yl)methoxy)benzyl)(methyl)amino)-3-hydroxy-2-methylpropanoic Acid], 0.21 to 10 nM.
As to `Cc1c(COc2cc(OCc3cncc(C#N)c3)c(CNC(CO)CO)cc2Cl)cccc1-c1cccc(OCCCN2CCC(F)(F)C2)c1C` [Example 4116, 5-((4-chloro-5-((3′-(3-(3,3-difluoropyrrolidin-1-yl)propoxy)-2,2′-dimethyl-[1,1′-biphenyl]-3-yl)methoxy)-2-(((1,3-dihydroxypropan-2-yl)amino)methyl)phenoxy)methyl)nicotinonitrile], the IC50 lay within 0.21 to 10 nM.
In the case of `Cc1c(COc2cc(OCc3cncc(C#N)c3)c(CNC(C)(CO)CO)cc2Cl)cccc1-c1cccc(OCCCN2CCC(F)(F)C2)c1C` [Example 4117, 5-((4-chloro-5-((3′-(3-(3,3-difluoropyrrolidin-1-yl)propoxy)-2,2′-dimethyl-[1,1′-biphenyl]-3-yl)methoxy)-2-(((1,3-dihydroxy-2-methylpropan-2-yl)amino)methyl)phenoxy)methyl)nicotinonitrile] it was 0.21 to 10 nM.
